{"source": "patent US4085224A", "about": "“Method of increasing feed utilization” (Eli Lilly and Company, priority 1976, dated 1978)", "system": "rumen fluid", "assay": "in vitro rumen fluid volatile fatty acid production", "set-up": "species or system steer", "conditions": "1 ppm in rumen fluid, 16 hours at 38° C.", "from_the_text": "As discussed hereinabove, efficiency of carbohydrate utilization in ruminants is increased by treatments which stimulate the amimal's rumen flora to produce propionate compounds rather than acetate or butyrate compounds. The efficiency of feed use can be monitored by observing the production and concentration of propionate compounds in the rumen, using the following methods:\nRemen fluid is obtained from a steer with a surgically-installed fistula opening into the rumen. The steer is maintained on a high-grain ration. A sample of rumen fluid is strained through four layers of cheesecloth, and the filtrate is collected. The particulate matter retained by the cheesecloth is resuspended in enough physiological buffer to return it to the original volume of the rumen fluid, and this suspension is strained again. The buffer used has the following composition:\nThe two filtrates are combined and allowed to stand until particulate matter separates to the top. The clear layer is separated, diluted with the same buffer (1:1) and then adjusted to between pH 6.8 to 7.0.\nThe diluted rumen fluid (10 ml) is placed in a 25-ml flask with 40 mg of the above-described feed, an additional 1 mg of soybean protein, and the compound to be tested. Four replicate flasks are used per treatment. Two sets of four control flasks each are also employed. A zero-time control and an incubated 16-hour control are used. All test flasks are incubated for 16 hours at 38° C. […] The samples are allowed to settle, and the supernatants are analyzed by gas chromatography for propionate, acetate, and butyrate compounds.", "data": [{"compound": "CCC(C(=O)O)C1OC(C(C)C(O)C(C)C(=O)C(CC)C2OC3(C=CC(O)C4(CCC(C)(C5CCC(O)(CC)C(C)O5)O4)O3)C(C)CC2C)C(C)CC1C", "note": "(stereo not shown) [A-28086 factor A]", "values": [{"measurement": "Ratio of Treated to Control, Molar % acetate", "value": 0.94}, {"measurement": "Ratio of Treated to Control, Molar % butyrate", "value": 0.87}, {"measurement": "Ratio of Treated to Control, Molar % propionate", "value": 1.34}, {"measurement": "Ratio of Treated to Control, Total VFA mM/l", "value": 1.26}]}]}
